Data reported in patent publication US8466186B2, “Compounds” (Boehringer Ingelheim International GmbH, priority 2010, dated 2013).

What follows are compounds tested against T1, recombinant human mPGES-1 (Homo sapiens, UniProt O14684) (assay: Assay A: mPGES-1 enzyme assay (HTRF detection of PGE2)). Details: biological assay A; microsomes from E. coli expressing recombinant human mPGES-1; read-out: mPGES-1 inhibitory effect IC50.
T1 construct: made in house; host or cells: Rosetta E. coli (membrane/microsome fraction)
T1 sequence (O14684 1-152): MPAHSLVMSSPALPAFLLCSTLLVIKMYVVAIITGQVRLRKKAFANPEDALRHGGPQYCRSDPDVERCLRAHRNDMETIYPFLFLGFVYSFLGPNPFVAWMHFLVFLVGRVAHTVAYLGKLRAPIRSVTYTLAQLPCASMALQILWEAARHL
Format: biochemical
Source text: The aim of this assay is to determine the affinity of a test compound for the mPGES-1 enzyme.
• 1. Riendeau, D., R. Aspiotis, D. Ethier, Y. Gareau, E. Grimm, J. Guay, S. Guiral, H. Juteau, J. Mancini, N. Methot, J. Rubin, and R. Friesen, Inhibitors of the inducible microsomal prostaglandin E2 synthase (mPGES-1) derived from MK-886. Bioorg Med Chem Lett, 2005. 15(14): p. 3352-3355. • 2. Cote, B., L. Boulet, C. Brideau, D. Claveau, D. Ethier, R. Frenette, M. Gagnon, A. Giroux, J. Guay, S. Guiral, J. Mancini, E. Martins, F. Masse, N. Methot, D. Riendeau, J. Rubin, D. Xu, H. Yu, Y. Ducharme, and R. Friesen, Substituted phenanthrene imidazoles as potent, selective, and orally active mPGES-1 inhibitors. Bioorg Med Chem Lett, 2007. 17(24): p. 6816-6820. Assay A: mPGES-1 Enzyme Assay List of Reagents Used: • Glutathione (Sigma, G-4251) • Freeze culture in Rosetta E coli expression strain. • LB growth media with Ampillicillin (Amp) final concentration in culture 50 μg/mL • Chloroamphenicol stock 34 mg/mL (chloro) final concentration in culture 34 μg/mL • Sterile growth flasks for 500 mL-1 liter cultures • 0.1 M KP, buffer pH 7.4 • 9.25% HCl • PGH2 (0.25 mM) • Fe (II) Cl2 tetrahydrate, 99% (Sigma, 220229) • 384-well plate with compounds • 96-well plate, polypropylene (Thermo fast 96 skirted VWR) • 384-well plate polypropylene PCR plate (Greiner 785201) • Greiner 384-well plate pp (In vitro cat. no. 781280) • Adhesive sealing film for 96-well plates (Sigma-Aldrich) • Aluminium foil (PCR foil, 310-0030-127-471 from Labora) • PBS (GIBCO 14040) • Prostaglandin E2 Assay (Cisbio, cat. no. 62P2APEC) • Biomek FX robot (Beckman Coulter) • Biomek NX robot (Beckman Coulter) • Multidrop; micro or combi (ThermoLabsystems) • Plate reader: Safire2 (Tecan)
Microsomes from Rosetta E. coli bacteria expressing recombinant human mPGES-1 can be derived as described below:
Inoculate 5 mL LB with Amp and Chloro with bacteria from freeze culture. Incubate overnight at 37° C. with 200 rpm. Thereafter, inoculate 500-800 mL LB containing Amp and Chloro with the 5 mL on culture and grow to OD640 of 0.6-0.8. Chill the culture to +4° C. before induction. Induce the culture with IPTG at a final concentration of 400 μM. Express the protein at room temp 18-23° C. with 200 rpm shaking overnight.
The following steps can be performed on the following day: • 1. Spin down the cells in 250 mL centrifuge flasks for 15 min at 7000 rpm • 2. Dissolve the pellet from 250 mL culture in 12.5 mL homogenization buffer • 3. Disintegrate the cells by sonication, 4×10 seconds at 35% amplitude • 4. Add 2.5 mL MgCl2 (100 mM) and DNase 12.5 μL (0.8 mg/mL) and incubate on ice for 30 min • 5. Spin down the bacteria debris and save the supernatant, 7000 rpm for 15 min • 6. Isolate the protein containing membranes in the supernatant by ultracentrifugation 45000×g for 1 hour. • 7. Discard the supernatant and dissolve the pellet in 20 mM KPi buffer and aliquot the enzyme and store aliquots at −80° C.
Before each experiment is performed an aliquot of the enzyme is thawed and it can then be dissolved in 0.1 M KP, pH 7.4 buffer containing 2.5 mM GSH. 50 μL of this enzyme solution is subsequently dispensed in a 384-well plate at room temperature. 0.5 μL of the inhibitor dissolved in DMSO is thereafter added to each well and incubated for 25 minutes at room temperature. Subsequently, 2 μL of PGH2 dissolved in an appropriate solvent is added to each well and after one minute at room temperature, the acidified stop solution containing FeCl2 is added. 4 μL of the total volume is transferred to a separate plate and diluted 750-fold in two separate steps before quantification of PGE2.
In order to quantitate the amount of PGE2 that has been formed, a homogenous time resolved fluorescent (HTRF) detection of PGE2 can be performed by the use of a commercially available kit from CisBio essentially according to the manufacturer's protocol. […]

Compound | IC50 [nM]
CC(=O)N1CCN(c2cc3[nH]c(Nc4cc(CNC(=O)C5(C(F)(F)F)CC5)ccc4Cl)nc3cc2Cl)CC1 [Example 74] | 144
Cn1c(Nc2cc(CNC(=O)c3c(Cl)cncc3Cl)ccc2Cl)nc2cc(Cl)c(N3CCCC(C(F)(F)F)C3)cc21 (centres unmarked) [Example 54] | 6.6
CN(C)C(=O)C1CCCN1c1cc2[nH]c(Nc3cc(CNC(=O)C(C)(C)C)ccc3Cl)nc2cc1Cl (centres unmarked) [Example 6, N-{4-Chloro-3-[5-chloro-6-(2-dimethylcarbamoyl-pyrrolidin-1-yl)-1H-benzimidazol-2-ylamino]-benzyl}-2,2-dimethyl-propionamide] | 215
Cn1c(Nc2cc(CNC(=O)C3(C)COC3)ccc2Cl)nc2cc(Cl)c(N3CCCC(C(F)(F)F)C3)cc21 (centres unmarked) [Example 66] | 10
Cn1c(Nc2cc(CNC(=O)C3(C(F)(F)F)CC3)ccc2Cl)nc2cc(C#N)c(N3CCC(C(F)(F)F)CC3)cc21 [Example 82, N-{4-Chloro-3-[5-cyano-1-methyl-6-(4-trifluoromethyl-piperidin-1-yl)-1H-benzimidazol-2-ylamino]-benzyl}-1-trifluoromethyl-cyclopropanamide] | 1.7
Cn1c(Nc2c(Cl)ccc(CNC(=O)C(C)(C)C)c2Cl)nc2cc(Cl)c(N3CCC(C(F)(F)F)CC3)cc21 [Example 5, N-{2,4-Dichloro-3-[5-chloro-1-methyl-6-(4-trifluoromethyl-piperidin-1-yl)-1H-benzimidazol-2-ylamino]-benzyl}-2,2-dimethyl-propionamide] | 3.8
Cn1c(Nc2cc(CNC(=O)C3(C(F)(F)F)CC3)ccc2Cl)nc2cc(Cl)c(N3CCC(C(F)(F)F)CC3)cc21 [Example 71, N-{4-Chloro-3-[5-chloro-1-methyl-6-(4-trifluoromethyl-piperidin-1-yl)-1H-benzimidazol-2-ylamino]benzyl}-1-trifluoromethyl-cyclopropaneamide] | 2.5
CC(C)(C(=O)NCc1ccc(Cl)c(Nc2nc3cc(N4CCCC4)ccc3[nH]2)c1)C(F)(F)F [Example 17] | 24
CC(C)(C)C(=O)NCc1ccc(Cl)c(Nc2nc3cc(Cl)c(N4CCC5(CC5)C4)cc3[nH]2)c1 [Example 4, N-{3-[6-(5-Aza-spiro[2.4]hept-5-yl)-5-chloro-1H-benzimidazol-2-ylamino]-4-chloro-benzyl}-2,2-dimethyl-propionamide] | 24
Cn1c(Nc2cc(CNC(=O)C(C)(N)C(F)(F)F)ccc2Cl)nc2cc(Cl)c(N3CCCC(C(F)(F)F)C3)cc21 (centres unmarked) [Example 1, 2-Amino-N-{4-chloro-3-[5-chloro-1-methyl-6-(3-(trifluoromethyl)piperidin-1-yl)-1H-benzo[d]imidazol-2-ylamino]benzyl}-3,3,3-trifluoro-2-methylpropanamide] | 2.5
Cn1c(Nc2cc(CNC(=O)C3(C(F)(F)F)CC3)ccc2Cl)nc2cc(Cl)c(N3CCC(c4ccccc4)CC3)cc21 [Example 76, N-{4-Chloro-3-[5-chloro-1-methyl-6-(4-phenyl-piperidin-1-yl)-1H-benzimidazol-2-ylamino]-benzyl}-1-trifluoromethyl-cyclopropanamide] | 3.1
CCC(C)(CC)C(=O)NCc1ccc(Cl)c(Nc2nc3cc(N4CCCC4)ccc3[nH]2)c1 [Example 16] | 15
Cn1c(Nc2cc(CNC(=O)C3(C(F)(F)F)CC3)ccc2Cl)nc2cc(F)c(N3CCC(C)(C)CC3)cc21 [Example 87] | 14
CN(C)CCn1c(Nc2cc(CNC(=O)C3(C(F)(F)F)CC3)ccc2Cl)nc2cc(Cl)c(N3CCC(C(F)(F)F)CC3)cc21 [Example 80] | 54
Cn1c(Nc2cc(CNC(=O)C(C)(F)F)ccc2Cl)nc2cc(Cl)c(N3CCCC(C(F)(F)F)C3)cc21 (centres unmarked) [Example 15] | 3
N#Cc1c(N2CCCC(C(F)(F)F)C2)ccc2nc(Nc3cc(CNC(=O)C4(C(F)(F)F)CC4)ccc3Cl)[nH]c12 (centres unmarked) [Example 93, N-{4-Chloro-3-[4-cyano-5-(3-trifluoromethyl-piperidin-1-yl)-1H-benzimidazol-2-ylamino]-benzyl}-1-trifluoromethyl-cyclopropanamide] | 17

Next, values leading:

IC50 [nM] | Compound
7.9 | COC[C@@H]1CCCN1c1cc2[nH]c(Nc3cc(CNC(=O)C4(C)CCCCC4)ccc3Cl)nc2cc1Cl [Example 122]
60 | CC1(C(=O)NCc2ccc(Cl)c(Nc3nc4cc(Cl)c(N5CCOCC5)cc4[nH]3)c2)CCCCC1 [Example 121]
2.1 | Cn1c(Nc2cc(CNC(=O)C(C)(F)F)ccc2Cl)nc2cc(Cl)c(N3CCC(c4ccccc4)CC3)cc21 [Example 95]
4.1 | Cn1c(Nc2cc(CNC(=O)C(C)(F)F)ccc2Cl)nc2cc(Cl)c(N3CCN(c4ccc(C(F)(F)F)cc4)CC3)cc21 [Example 96]
124 | Cn1c(Nc2cc(CNC(=O)C3(C(F)(F)F)CC3)ccc2Cl)nc2ccc(N3CCCC3)cc21 [Example 132]
19 | Cn1c(Nc2cc(CNC(=O)C3(C(F)(F)F)CC3)ccc2F)nc2cc(Cl)c(N3CCC(C(F)(F)F)CC3)cc21 [Example 111, N-{4-Fluoro-3-[5-chloro-1-methyl-6-(4-trifluoromethyl-piperidin-1-yl)-1H-benzimidazol-2-ylamino]-benzyl}-1-trifluoromethyl-cyclopropanamide]
5.2 | Cn1c(Nc2cc(CN[S+]([O-])C(C)(C)C)ccc2C(F)(F)F)nc2cc(Cl)c(N3CCC(C(F)(F)F)CC3)cc21 (centres unmarked) [Example 109, N-(4-Trifluoromethyl-3-(5-chloro-1-methyl-6-(4-trifluoromethyl-piperidin-1-yl)-1H-benzo[d]imidazol-2-ylamino)benzyl)-2-methylpropane-2-sulfinamide]
